From ChEMBL document CHEMBL1909046, “DrugMatrix in vitro pharmacology data”

Columns and labels:
Carbonic anhydrase 2 = Carbonic anhydrase 2 (Homo sapiens, UniProt P00918); assay: DRUGMATRIX: Carbonic Anhydrase II enzyme inhibition (substrate: 4-Nitrophenyl acetate (4-NPA)); type: tissue-based, Erythrocyte; settings: erythrocyte; Not Active = under 50% inhibition at 10 µM
[1] = DRUGMATRIX: Platelet-Derived Growth Factor (PDGF) radioligand binding (ligand: [125I] PDGF); type: cell-based; settings: nih3t3; Not Active = under 50% inhibition at 10 µM
[2] = DRUGMATRIX: Purinergic P2X radioligand binding (ligand: [3H] alpha, beta-Methylene-ATP); type: cell membranes, Oryctolagus cuniculus, New Zealand albino, Urinary bladder, Membrane; settings: Not Active = under 50% inhibition at 10 µM
[3] = biological target: Mitogen-activated protein kinase 3 (Homo sapiens, UniProt P27361); assay: DRUGMATRIX: Protein Serine/Threonine Kinase, ERK1 enzyme inhibition (substrate: Myelin Basic Protein); set-up: species or system Escherichia coli; settings: Not Active = under 50% inhibition at 10 µM
[4] = DRUGMATRIX: Calcium Channel Type L, Dihydropyridine radioligand binding (ligand: [3H] Nitrendipine); type: cell membranes, Rattus norvegicus, Wistar, Cerebral cortex, Membrane; settings: Not Active = under 50% inhibition at 10 µM
[5] = biological target: T1, Neuropeptide Y receptor type 2 (Homo sapiens, UniProt P49146); type: cell membranes, Membrane; settings: kan-ts; further: in other assays of this panel Not Active means under 50% inhibition at 10 µM
T1 sequence (P49146 whole entry): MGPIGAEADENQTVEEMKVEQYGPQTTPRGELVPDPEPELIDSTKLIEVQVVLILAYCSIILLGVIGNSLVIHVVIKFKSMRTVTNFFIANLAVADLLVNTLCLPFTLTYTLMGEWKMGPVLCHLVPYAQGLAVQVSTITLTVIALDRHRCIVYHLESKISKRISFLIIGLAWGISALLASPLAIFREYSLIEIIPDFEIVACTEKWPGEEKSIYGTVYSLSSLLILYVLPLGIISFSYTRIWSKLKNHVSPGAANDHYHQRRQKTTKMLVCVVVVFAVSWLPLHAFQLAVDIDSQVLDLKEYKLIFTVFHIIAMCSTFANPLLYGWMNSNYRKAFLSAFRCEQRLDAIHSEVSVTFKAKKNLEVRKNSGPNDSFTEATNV

Thromboxane-A synthase = biological target: T2, Thromboxane-A synthase (Homo sapiens, UniProt P24557); assay: biochemical; type: tissue-based, Platelet; settings: platelet;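 further: enzyme inhibition assay with PGH2 supplied as substrate; in other assays of this panel Not Active means under 50% inhibition at 10 µM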
T2 sequence (P24557 whole entry): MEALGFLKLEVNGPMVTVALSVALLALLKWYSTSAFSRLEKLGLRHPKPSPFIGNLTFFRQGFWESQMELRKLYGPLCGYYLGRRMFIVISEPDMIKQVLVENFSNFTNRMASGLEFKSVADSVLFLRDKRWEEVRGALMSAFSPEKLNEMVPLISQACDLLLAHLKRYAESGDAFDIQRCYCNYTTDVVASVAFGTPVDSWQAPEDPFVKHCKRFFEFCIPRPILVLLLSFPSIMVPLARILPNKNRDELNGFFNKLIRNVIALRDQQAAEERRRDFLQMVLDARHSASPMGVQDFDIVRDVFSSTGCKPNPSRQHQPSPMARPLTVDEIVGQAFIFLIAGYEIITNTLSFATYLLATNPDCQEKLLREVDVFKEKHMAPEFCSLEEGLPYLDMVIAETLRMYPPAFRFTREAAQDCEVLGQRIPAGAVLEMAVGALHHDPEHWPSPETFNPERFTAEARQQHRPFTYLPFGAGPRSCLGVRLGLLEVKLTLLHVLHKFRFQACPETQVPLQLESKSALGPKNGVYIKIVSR

Sequence of Mitogen-activated protein kinase 3 (P27361 whole entry): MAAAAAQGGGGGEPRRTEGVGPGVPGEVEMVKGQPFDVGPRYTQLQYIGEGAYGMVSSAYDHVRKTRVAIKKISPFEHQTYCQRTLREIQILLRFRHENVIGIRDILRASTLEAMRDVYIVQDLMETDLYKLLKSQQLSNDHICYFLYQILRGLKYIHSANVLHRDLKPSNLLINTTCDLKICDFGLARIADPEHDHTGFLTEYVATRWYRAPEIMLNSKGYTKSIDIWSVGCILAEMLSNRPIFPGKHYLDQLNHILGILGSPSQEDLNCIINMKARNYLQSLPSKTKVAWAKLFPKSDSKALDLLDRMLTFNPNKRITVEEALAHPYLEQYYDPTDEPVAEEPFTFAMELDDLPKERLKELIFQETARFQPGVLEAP

CC(C)(C)NC[C@H](O)COc1cccc2c1CCCC2=O [LEVOBUNOLOL]
Not Active: IC50 (Carbonic anhydrase 2) | IC50 [1] | Ki [1] | IC50 [2] | Ki [2] | IC50 [3] | IC50 [4] | Ki [4] | IC50 [5] | IC50 (Thromboxane-A synthase)

CO[C@@H]1[C@@H](OC)[C@H](C)[C@@](O)(CC(=O)O)O[C@H]1[C@H](C)[C@H]1O[C@@]2(CC[C@@](C)([C@H]3CC[C@@](C)([C@@H]4O[C@@H]([C@H]5O[C@](C)(O)[C@H](C)C[C@@H]5C)C[C@@H]4O[C@@H]4C[C@H](OC)[C@@H](OC)[C@H](C)O4)O3)O2)C[C@H](O)[C@H]1C.N [MADURAMICIN]
Not Active: IC50 (Carbonic anhydrase 2) | IC50 [1] | Ki [1] | IC50 [2] | Ki [2] | IC50 [3] | IC50 [4] | Ki [4] | IC50 [5] | IC50 (Thromboxane-A synthase)

OC[C@@H](O)[C@@H](O)[C@H](O)[C@H](O)CO [MANNITOL]
Not Active: IC50 (Carbonic anhydrase 2) | IC50 [1] | Ki [1] | IC50 [2] | Ki [2] | IC50 [3] | IC50 [4] | Ki [4] | IC50 [5] | IC50 (Thromboxane-A synthase)

COC(=O)Nc1nc2ccc(C(=O)c3ccccc3)cc2[nH]1 [MEBENDAZOLE]
Not Active: IC50 (Carbonic anhydrase 2) | IC50 [1] | Ki [1] | IC50 [2] | Ki [2] | IC50 [3] | IC50 [4] | Ki [4] | IC50 [5] | IC50 (Thromboxane-A synthase)

Cc1ccc(Cl)c(Nc2ccccc2C(=O)O)c1Cl [MECLOFENAMIC ACID]
Not Active: IC50 (Carbonic anhydrase 2) | IC50 [1] | Ki [1] | IC50 [2] | Ki [2] | IC50 [3] | IC50 [4] | Ki [4] | IC50 [5] | IC50 (Thromboxane-A synthase)

CC(=O)O[C@]1(C(C)=O)CC[C@H]2[C@@H]3C[C@H](C)C4=CC(=O)CC[C@]4(C)[C@H]3CC[C@@]21C [MEDROXYPROGESTERONE ACETATE]
Not Active: IC50 (Carbonic anhydrase 2) | IC50 [1] | Ki [1] | IC50 [2] | Ki [2] | IC50 [3] | IC50 [4] | Ki [4] | IC50 [5] | IC50 (Thromboxane-A synthase)

Cc1cnc(NC(=O)C2=C(O)c3ccccc3S(=O)(=O)N2C)s1 [MELOXICAM]
Not Active: IC50 (Carbonic anhydrase 2) | IC50 [1] | Ki [1] | IC50 [2] | Ki [2] | IC50 [3] | IC50 [4] | Ki [4] | IC50 [5] | IC50 (Thromboxane-A synthase)

CN1C[C@H](CNC(=O)OCc2ccccc2)C[C@@H]2c3cccc4c3c(cn4C)C[C@H]21 [METERGOLINE]
Not Active: IC50 (Carbonic anhydrase 2) | IC50 [1] | Ki [1] | IC50 [2] | Ki [2] | IC50 [3] | IC50 [4] | Ki [4] | IC50 [5] | IC50 (Thromboxane-A synthase)

C[N+]1(C)[C@@H]2C[C@@H](OC(=O)[C@H](CO)c3ccccc3)C[C@H]1[C@@H]1O[C@@H]12.[Br-] [METHSCOPOLAMINE BROMIDE]
Not Active: IC50 (Carbonic anhydrase 2) | IC50 [1] | Ki [1] | IC50 [2] | Ki [2] | IC50 [3] | IC50 [4] | Ki [4] | IC50 [5] | IC50 (Thromboxane-A synthase)

CCN(CC)CCNC(=O)c1cc(Cl)c(N)cc1OC [METOCLOPRAMIDE]
Not Active: IC50 (Carbonic anhydrase 2) | IC50 [1] | Ki [1] | IC50 [2] | Ki [2] | IC50 [3] | IC50 [4] | Ki [4] | IC50 [5] | IC50 (Thromboxane-A synthase)

CC[C@H](C)C(=O)O[C@H]1CCC=C2C=C[C@H](C)[C@H](CC[C@@H]3C[C@@H](O)CC(=O)O3)[C@H]21 [MEVASTATIN]
Not Active: IC50 (Carbonic anhydrase 2) | IC50 [1] | Ki [1] | IC50 [2] | Ki [2] | IC50 [3] | IC50 [4] | Ki [4] | IC50 [5] | IC50 (Thromboxane-A synthase)

CC#C[C@]1(O)CC[C@H]2[C@@H]3CCC4=CC(=O)CCC4=C3[C@@H](c3ccc(N(C)C)cc3)C[C@@]21C [MIFEPRISTONE]
Not Active: IC50 (Carbonic anhydrase 2) | IC50 [1] | Ki [1] | IC50 [2] | Ki [2] | IC50 [3] | IC50 [4] | Ki [4] | IC50 [5] | IC50 (Thromboxane-A synthase)

Cc1[nH]c(=O)c(C#N)cc1-c1ccncc1 [MILRINONE]
Not Active: IC50 (Carbonic anhydrase 2) | IC50 [1] | Ki [1] | IC50 [2] | Ki [2] | IC50 [3] | IC50 [4] | Ki [4] | IC50 [5] | IC50 (Thromboxane-A synthase)

CO[C@@]12[C@H](COC(N)=O)C3=C(C(=O)C(C)=C(N)C3=O)N1C[C@@H]1N[C@@H]12 [MITOMYCIN]
Not Active: IC50 (Carbonic anhydrase 2) | IC50 [1] | Ki [1] | IC50 [2] | Ki [2] | IC50 [3] | IC50 [4] | Ki [4] | IC50 [5] | IC50 (Thromboxane-A synthase)

CCOc1cc(N)c(Cl)cc1C(=O)NCC1CN(Cc2ccc(F)cc2)CCO1 (stereo not given) [MOSAPRIDE]
Not Active: IC50 (Carbonic anhydrase 2) | IC50 [1] | Ki [1] | IC50 [2] | Ki [2] | IC50 [3] | IC50 [4] | Ki [4] | IC50 [5] | IC50 (Thromboxane-A synthase)

CCN(CC)N=O [N-NITROSODIETHYLAMINE]
Not Active: IC50 (Carbonic anhydrase 2) | IC50 [1] | Ki [1] | IC50 [2] | Ki [2] | IC50 [3] | IC50 [4] | Ki [4] | IC50 [5] | IC50 (Thromboxane-A synthase)
